Where a name gives a salt, the structure may show the parent alone.
Key:
[1] = target: T1, recombinant human NMDAR GluN1 plus GluN2D (Homo sapiens, UniProt O15399+Q05586); assay: FLIPR calcium assay, gentamicin as PAM (Example 5 Part I), GluN2D cell line; assay type: cell-based; settings: 10 μM test item; dextromethadone in presence and absence of 10 μM gentamicin
T1 construct: expressed in transfected cells; host or cells: CHO
Source text: (§1) A FLIPR calcium assay was used to profile gentamicin using stable cell lines expressing diheteromeric recombinant human NMDARs, containing GluN1 plus one amongst GluN2A, GluN2B, GluN2C or GluN2D subunit.

[2] = target: T2, human NMDA receptor GluN1-GluN2D (Homo sapiens, UniProt O15399+Q05586); assay: FLIPR calcium assay, quinolinic acid, gentamicin, dextromethadone (Example 5 Part II), GluN1-GluN2D-CHO; assay type: cell-based
T2 construct: expressed in transfected cells; host or cells: CHO
Method: (§2) Quinolinic acid or gentamicin CRCs were also produced, in presence of 10 μM glycine.
(§3) Test items were evaluated in FLIPR for their ability to modulate, alone or in combination, calcium entry in presence of […], using four CHO cell lines expressing diheteromeric human NMDA receptor (NMDAR): GluN-/GluN2A-CHO, GluN1-GluN2B-CHO, GluN1-GluN2C-CHO, GluN1-GluN2D-CHO.
(§4) The first aim of the study was to evaluate quinolinic acid or gentamicin CRC effect in the presence of 10 μM glycine.
(§5) FLIPR determination of intracellular calcium level was used as a read-out for NMDAR activation.
(§6) 400× compound plate was stored at −20° C. till FLIPR experimental day.
(§7) A 4× compound plate was generated from 400× compound plate by addition of up to 30 μl/well of compound buffer on FLIPR experimental day.
(§8) A FLIPR system was used to monitor intracellular calcium level in NMDAR cell lines, pre-loaded for 1 hour with Fluo-4, and then washed with assay buffer.
(§9) Y=Bottom+(Top−Bottom)/(1+10^((LogEC50−X)*HillSlope))
(§10) Test item CRC data were plotted by Prism 8 GraphPad software, in the different experimental conditions. And, column analysis, performed by Prism 8 GraphPad software, was one way ANOVA followed by Tukey's multiple comparisons test, with a single pooled variance.

[3] = target: T3, human NMDA receptor GluN1-GluN2C (Homo sapiens, UniProt Q05586+Q14957); assay: FLIPR calcium assay, quinolinic acid, gentamicin, dextromethadone (Example 5 Part II), GluN1-GluN2C-CHO; assay type: cell-based
T3 construct: expressed in transfected cells; host or cells: CHO
Method: as §2, §3, §4, §5, §6, §7, §8, §9, §10

[4] = target: T4, recombinant human NMDAR GluN1 plus GluN2C (Homo sapiens, UniProt Q05586+Q14957); assay: FLIPR calcium assay, gentamicin as PAM (Example 5 Part I), GluN2C cell line; assay type: cell-based; settings: 10 μM test item; dextromethadone in presence and absence of 10 μM gentamicin
T4 construct: expressed in transfected cells; host or cells: CHO
Source text: as §1

[5] = target: T5, recombinant human NMDAR GluN1 plus GluN2A (Homo sapiens, UniProt Q05586+Q12879); assay: FLIPR calcium assay, gentamicin as PAM (Example 5 Part I), GluN2A cell line; assay type: cell-based; settings: 10 μM test item; dextromethadone in presence and absence of 10 μM gentamicin
T5 construct: expressed in transfected cells; host or cells: CHO
Source text: as §1

[6] = target: T6, human NMDA receptor GluN1-GluN2B (Homo sapiens, UniProt Q05586+Q13224); assay: FLIPR calcium assay, quinolinic acid, gentamicin, dextromethadone (Example 5 Part II), GluN1-GluN2B-CHO; assay type: cell-based
T6 construct: expressed in transfected cells; host or cells: CHO
Method: as §2, §3, §4, §5, §6, §7, §8, §9, §10

[7] = target: T7, recombinant human NMDAR GluN1 plus GluN2B (Homo sapiens, UniProt Q05586+Q13224); assay: FLIPR calcium assay, gentamicin as PAM (Example 5 Part I), GluN2B cell line; assay type: cell-based; settings: 10 μM test item; dextromethadone in presence and absence of 10 μM gentamicin
T7 construct: expressed in transfected cells; host or cells: CHO
Source text: as §1

[8] = target: T8, human NMDA receptor GluN1-GluN2A (Homo sapiens, UniProt Q05586+Q12879); assay: FLIPR calcium assay, quinolinic acid, gentamicin, dextromethadone (Example 5 Part II), GluN1-GluN2A-CHO; assay type: cell-based; design: calcium response (mean±SEM): unit not given here
T8 construct: expressed in transfected cells; host or cells: CHO
Method: as §2, §3, §4, §5, §6, §7, §8, §9, §10

[9] = system: diheteromeric human recombinant NMDAR containing GluN1 plus GluN2A, GluN2B, GluN2C or GluN2D; assay: FLIPR calcium assay, statements for all four NMDAR subtypes together; assay type: cell-based; settings: 6 test item concentrations
Source text: An operational equation for allosteric modulators (Leach K, Sexton P M and Christopoulos A, Allosteric GPCR modulators: taking advantage of permissive receptor pharmacology, Trends Pharmacol. Sci. 28: 382-389, 2007; Kenakin T P, Overview of receptor interaction of agonists and antagonists, Curr. Protoc. Pharmacol. Chapter 4: Unit 4.1, 2008, Kenakin T P, Biased signalling and allosteric machines: new vistas and challenges for drug discovery, Br. J. Pharmacol. 165: 1659-1669, 2012) was created in Prism 8 (GraphPad) software to estimate KB and a parameters for every test item, with the assumption that, as a pore blocker, every test item would be able to produce a compete blockade of agonist response, at sufficiently high concentration: […]

[10] = target: T8, human NMDA receptor GluN1-GluN2A; assay: FLIPR calcium assay, test item effect on L-glutamate CRC, GluN1-GluN2A-CHO; assay type: cell-based
Method: as §5
(§11) 400× compound plate was stored at −20° C. until FLIPR experimental day.
(§12) 4× compound plate was generated from 400× compound plate by addition of up to 30 μl/well of compound buffer on FLIPR experimental day.
as §8
(§13) Y=Bottom+(Top−Bottom)/(1+10^((LogEC50−Log[A])*HillSlope))

[11] = target: T6, human NMDA receptor GluN1-GluN2B; assay: cell-based; assay type: cell-based
Method: as §5, §11, §12, §8, §13

[12] = target: T3, human NMDA receptor GluN1-GluN2C; assay: FLIPR calcium assay, test item effect on L-glutamate CRC, GluN1-GluN2C-CHO; assay type: cell-based
Method: as §5, §11, §12, §8, §13

[13] = target: T2, human NMDA receptor GluN1-GluN2D; assay: FLIPR calcium assay, test item effect on L-glutamate CRC, GluN1-GluN2D-CHO; assay type: cell-based
Method: as §5, §11, §12, §8, §13

rat brain = settings: 75 mg/kg; Hashimoto et al., 1996; cited from earlier work
[14] = CRC in presence of 10 μM glycine
[15] = CRC in presence of 10 μM glycine, no glutamate
[16] = gentamicin CRC, max 100, 10 μM glycine
[17] = highest affinity for a NMDAR subtype = 100%
[18] = operational analysis for allosteric modulators
[19] = operational analysis for allosteric modulators, read-out: KB (M), estimated test item equilibrium dissociation constant

T1 sequence (O15399 28-1336, other chains not shown): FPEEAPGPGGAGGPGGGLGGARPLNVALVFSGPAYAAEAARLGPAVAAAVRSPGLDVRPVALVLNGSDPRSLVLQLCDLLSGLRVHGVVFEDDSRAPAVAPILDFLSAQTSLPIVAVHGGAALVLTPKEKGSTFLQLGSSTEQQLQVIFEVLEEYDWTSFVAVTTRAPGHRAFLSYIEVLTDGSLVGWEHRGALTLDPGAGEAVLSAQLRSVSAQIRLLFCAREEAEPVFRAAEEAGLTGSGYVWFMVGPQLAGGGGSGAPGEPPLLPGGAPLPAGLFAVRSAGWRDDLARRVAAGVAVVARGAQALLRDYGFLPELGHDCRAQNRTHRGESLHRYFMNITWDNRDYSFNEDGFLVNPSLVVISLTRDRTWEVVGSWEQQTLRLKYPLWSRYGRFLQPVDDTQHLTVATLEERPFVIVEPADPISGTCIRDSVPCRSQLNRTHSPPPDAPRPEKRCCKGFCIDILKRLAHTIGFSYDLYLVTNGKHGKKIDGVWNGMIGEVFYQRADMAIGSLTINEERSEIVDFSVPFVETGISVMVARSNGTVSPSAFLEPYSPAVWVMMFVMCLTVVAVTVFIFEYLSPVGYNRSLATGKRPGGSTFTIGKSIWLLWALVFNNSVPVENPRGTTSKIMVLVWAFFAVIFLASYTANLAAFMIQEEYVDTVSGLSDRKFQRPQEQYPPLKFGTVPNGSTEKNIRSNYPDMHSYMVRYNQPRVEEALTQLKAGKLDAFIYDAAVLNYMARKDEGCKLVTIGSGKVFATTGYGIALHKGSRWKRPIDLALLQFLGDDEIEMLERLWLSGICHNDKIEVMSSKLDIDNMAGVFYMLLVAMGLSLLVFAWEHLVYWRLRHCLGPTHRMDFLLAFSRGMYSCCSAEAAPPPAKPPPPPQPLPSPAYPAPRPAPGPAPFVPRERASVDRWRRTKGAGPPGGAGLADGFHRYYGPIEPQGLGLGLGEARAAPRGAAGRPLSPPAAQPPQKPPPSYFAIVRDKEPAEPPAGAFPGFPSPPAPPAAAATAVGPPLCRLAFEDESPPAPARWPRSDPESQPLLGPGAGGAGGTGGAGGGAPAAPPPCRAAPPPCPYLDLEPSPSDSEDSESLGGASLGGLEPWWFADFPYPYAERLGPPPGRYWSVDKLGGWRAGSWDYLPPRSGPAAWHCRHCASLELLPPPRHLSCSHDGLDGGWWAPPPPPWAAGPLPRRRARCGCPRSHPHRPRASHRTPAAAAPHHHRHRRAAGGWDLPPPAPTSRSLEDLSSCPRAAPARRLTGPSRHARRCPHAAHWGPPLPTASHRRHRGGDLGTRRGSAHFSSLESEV
T2 sequence (O15399 28-1336, other chains not shown): as above
T3 sequence (Q14957 20-1233, other chains not shown): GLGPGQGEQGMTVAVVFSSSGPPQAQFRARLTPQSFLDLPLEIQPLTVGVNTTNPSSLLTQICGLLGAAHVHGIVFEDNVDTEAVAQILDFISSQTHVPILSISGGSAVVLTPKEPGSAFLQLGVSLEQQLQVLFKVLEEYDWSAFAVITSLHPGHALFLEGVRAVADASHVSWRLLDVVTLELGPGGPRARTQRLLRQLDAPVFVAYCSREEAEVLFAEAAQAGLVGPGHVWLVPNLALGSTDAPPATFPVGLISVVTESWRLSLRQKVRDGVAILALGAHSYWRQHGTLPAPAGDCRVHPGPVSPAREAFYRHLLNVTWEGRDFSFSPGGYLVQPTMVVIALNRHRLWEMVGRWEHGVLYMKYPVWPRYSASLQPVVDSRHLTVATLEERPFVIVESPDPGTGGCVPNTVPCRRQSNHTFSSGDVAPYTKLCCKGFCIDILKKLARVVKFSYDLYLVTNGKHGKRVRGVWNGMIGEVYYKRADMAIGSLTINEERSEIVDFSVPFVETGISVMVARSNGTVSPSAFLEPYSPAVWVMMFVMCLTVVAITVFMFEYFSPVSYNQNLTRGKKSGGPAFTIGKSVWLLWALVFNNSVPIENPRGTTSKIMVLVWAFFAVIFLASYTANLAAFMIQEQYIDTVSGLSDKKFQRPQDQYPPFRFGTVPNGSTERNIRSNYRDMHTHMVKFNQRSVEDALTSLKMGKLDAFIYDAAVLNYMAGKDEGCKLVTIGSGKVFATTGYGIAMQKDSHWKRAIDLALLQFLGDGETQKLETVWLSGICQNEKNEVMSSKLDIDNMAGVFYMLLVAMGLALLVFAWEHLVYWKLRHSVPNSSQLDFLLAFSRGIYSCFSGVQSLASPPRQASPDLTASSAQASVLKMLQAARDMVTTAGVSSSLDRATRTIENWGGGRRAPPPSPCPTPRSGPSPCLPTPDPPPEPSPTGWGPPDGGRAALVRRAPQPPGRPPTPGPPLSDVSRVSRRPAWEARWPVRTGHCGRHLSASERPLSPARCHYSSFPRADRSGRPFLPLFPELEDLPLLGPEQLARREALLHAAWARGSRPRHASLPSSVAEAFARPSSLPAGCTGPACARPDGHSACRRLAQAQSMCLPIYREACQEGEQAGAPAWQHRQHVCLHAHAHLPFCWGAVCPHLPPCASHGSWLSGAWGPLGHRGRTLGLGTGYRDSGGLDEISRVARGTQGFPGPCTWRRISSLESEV
T8 sequence (Q12879 23-1464, other chains not shown): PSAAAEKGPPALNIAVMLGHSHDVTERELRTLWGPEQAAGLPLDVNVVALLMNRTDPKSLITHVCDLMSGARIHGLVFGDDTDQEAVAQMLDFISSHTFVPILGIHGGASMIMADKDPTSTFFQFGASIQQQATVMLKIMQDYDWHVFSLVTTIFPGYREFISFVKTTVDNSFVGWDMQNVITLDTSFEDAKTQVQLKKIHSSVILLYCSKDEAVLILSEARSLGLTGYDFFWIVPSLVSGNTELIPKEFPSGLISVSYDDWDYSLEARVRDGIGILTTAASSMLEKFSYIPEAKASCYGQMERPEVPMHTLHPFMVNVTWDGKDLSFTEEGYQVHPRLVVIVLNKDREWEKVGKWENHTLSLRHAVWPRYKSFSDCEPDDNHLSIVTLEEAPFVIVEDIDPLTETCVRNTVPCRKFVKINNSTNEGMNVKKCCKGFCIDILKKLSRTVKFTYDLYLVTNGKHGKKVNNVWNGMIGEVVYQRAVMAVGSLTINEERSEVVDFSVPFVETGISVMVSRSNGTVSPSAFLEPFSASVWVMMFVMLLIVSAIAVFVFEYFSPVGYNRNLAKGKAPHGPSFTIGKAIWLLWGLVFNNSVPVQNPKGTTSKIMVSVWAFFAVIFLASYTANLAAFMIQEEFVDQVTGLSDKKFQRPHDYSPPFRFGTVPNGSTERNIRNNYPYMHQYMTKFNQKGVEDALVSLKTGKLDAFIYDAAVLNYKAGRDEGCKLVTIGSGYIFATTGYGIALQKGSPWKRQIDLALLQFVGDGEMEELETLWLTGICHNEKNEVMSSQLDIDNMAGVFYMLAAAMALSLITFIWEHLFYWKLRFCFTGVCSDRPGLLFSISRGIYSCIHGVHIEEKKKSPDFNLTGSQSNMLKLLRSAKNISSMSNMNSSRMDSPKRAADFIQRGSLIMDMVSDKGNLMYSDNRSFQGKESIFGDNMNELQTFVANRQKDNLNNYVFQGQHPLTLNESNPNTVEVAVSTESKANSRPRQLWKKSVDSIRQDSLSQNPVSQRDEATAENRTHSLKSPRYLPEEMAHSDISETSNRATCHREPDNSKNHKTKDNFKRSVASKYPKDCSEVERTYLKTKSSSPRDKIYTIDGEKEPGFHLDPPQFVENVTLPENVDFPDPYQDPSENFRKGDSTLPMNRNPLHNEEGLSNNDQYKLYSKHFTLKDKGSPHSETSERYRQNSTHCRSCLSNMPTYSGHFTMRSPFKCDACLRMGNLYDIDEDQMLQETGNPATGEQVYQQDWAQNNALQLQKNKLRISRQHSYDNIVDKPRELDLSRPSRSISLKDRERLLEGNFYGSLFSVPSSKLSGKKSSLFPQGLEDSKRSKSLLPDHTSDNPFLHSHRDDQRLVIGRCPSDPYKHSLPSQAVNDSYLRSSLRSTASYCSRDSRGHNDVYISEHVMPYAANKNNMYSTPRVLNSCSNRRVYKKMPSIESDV
T4 sequence (Q14957 20-1233, other chains not shown): as the sequence (Q14957 20-1233, other chains not shown) above

## Gentamicin sulfate
[1]
  calcium entry induced by 0.04 μM L-glutamate: significantly increased
  calcium entry induced by 0.2 μM L-glutamate: decreased calcium entry
  calcium entry induced by 10 μM L-glutamate: did not modify
[2]; 10 μM glycine
  EC50: >100 µg/mL
[2]; 1000 μM QA + 10 μg/ml GENT, 10 μM glycine, GluN2D, n=42
  calcium response (mean±SEM): 53 ± 1.7
[2]; [14]
  Minimal response (%): −3.2%
[2]; [15]
  pEC50: <4
[2]; [16]
  Response at max conc (%): 1.0%
[3]; 10 μM glycine
  EC50: >100 µg/mL
[3]; 1000 μM QA + 10 μg/ml GENT, 10 μM glycine, GluN2C, n=42
  calcium response (mean±SEM): 5.6 ± 0.4
[3]; [14]
  Minimal response (%): −8.2%
[3]; [15]
  pEC50: <4
[3]; [16]
  Response at max conc (%): 0.03%
[4]
  calcium entry induced by 0.04 μM L-glutamate: significantly increased
  calcium entry induced by 10 μM L-glutamate: significantly decreased
[5]
  calcium entry induced by 0.04 μM L-glutamate: significantly increased
  calcium entry induced by 0.2 μM L-glutamate: significantly increased
  calcium entry induced by 10 μM L-glutamate: significantly decreased
[6]; 10 μM glycine
  EC50: >100 µg/mL
[6]; 1000 μM QA + 10 μg/ml GENT, 10 μM glycine, GluN2B, n=42
  calcium response (mean±SEM): 37 ± 1.4
[6]; [14]
  Minimal response (%): −3.7%
[6]; [15]
  pEC50: <4
[6]; [16]
  Response at max conc (%): 0.7%
[7]
  calcium entry induced by 0.04 μM L-glutamate: significantly increased
  calcium entry induced by 0.2 μM L-glutamate: significantly increased
  calcium entry induced by 10 μM L-glutamate: did not modify
[8]; 10 μM glycine
  EC50: >100 µg/mL
[8]; 10 μg/ml gentamicin, 10 μM glycine
  % effect on calcium entry, 1000 μM quinolinic acid plus gentamicin: 47±1.1%
[8]; 1000 μM QA + 10 μg/ml GENT, 10 μM glycine, GluN2A, n=42
  calcium response (mean±SEM): 47 ± 1.1
[8]; [14]
  Minimal response (%): −3.3%
[8]; [15]
  pEC50: <4
[8]; [16]
  Response at max conc (%): 0.1%

## COc1ccc2c(c1)[C@]13CCCC[C@@H]1[C@H](C2)N(C)CC3 [Dextromethorphan, dextromethorphan hydrobromide monohydrate]
[9]
  profile on L-glutamate CRC: insurmountable profile
[10]; [17]
  % affinity ratio: 13%
[10]; [18]
  α, estimated cooperativity term: 0.25
[10]; [19]
  Kb: 9.6e-06 M
[10]; with test item 49 nM
  L-glutamate CRC HillSlope: 1.0
  L-glutamate CRC LogEC50: −6.6
[10]; with test item 195 nM
  L-glutamate CRC HillSlope: 1.2
  L-glutamate CRC LogEC50: −6.6
[10]; with test item 781 nM
  L-glutamate CRC HillSlope: 1.3
  L-glutamate CRC LogEC50: −6.4
[10]; with test item 3.1 μM
  L-glutamate CRC HillSlope: 1.3
  L-glutamate CRC LogEC50: −6.5
[10]; with test item 12.5 μM
  L-glutamate CRC HillSlope: 1.1
  L-glutamate CRC LogEC50: −6.4
[10]; with test item 50 μM
  L-glutamate CRC HillSlope: 1.3
  L-glutamate CRC LogEC50: −6.2
[11]; [17]
  % affinity ratio: 63%
[11]; [18]
  α, estimated cooperativity term: 0.13
[11]; [19]
  Kb: 1.9e-06 M
[11]; with test item 49 nM
  L-glutamate CRC HillSlope: 1.2
  L-glutamate CRC LogEC50: −6.7
[11]; with test item 195 nM
  L-glutamate CRC HillSlope: 1.1
  L-glutamate CRC LogEC50: −6.7
[11]; with test item 781 nM
  L-glutamate CRC HillSlope: 1.3
  L-glutamate CRC LogEC50: −6.6
[11]; with test item 3.1 μM
  L-glutamate CRC HillSlope: 1.3
  L-glutamate CRC LogEC50: −6.7
[11]; with test item 12.5 μM
  L-glutamate CRC HillSlope: 1.2
  L-glutamate CRC LogEC50: −6.7
[11]; with test item 50 μM
  L-glutamate CRC HillSlope: 0.83
  L-glutamate CRC LogEC50: −6.2
[12]; [17]
  % affinity ratio: 100%
[12]; [18]
  α, estimated cooperativity term: 0.24
[12]; [19]
  Kb: 1.2e-06 M
[12]; with test item 49 nM
  L-glutamate CRC HillSlope: 1.3
  L-glutamate CRC LogEC50: −7.0
[12]; with test item 195 nM
  L-glutamate CRC HillSlope: 1.4
  L-glutamate CRC LogEC50: −6.8
[12]; with test item 781 nM
  L-glutamate CRC HillSlope: 1.6
  L-glutamate CRC LogEC50: −6.8
[12]; with test item 3.1 μM
  L-glutamate CRC HillSlope: 1.6
  L-glutamate CRC LogEC50: −6.7
[12]; with test item 12.5 μM
  L-glutamate CRC HillSlope: 1.5
  L-glutamate CRC LogEC50: −6.7
[12]; with test item 50 μM
  L-glutamate CRC HillSlope: 3.0
  L-glutamate CRC LogEC50: −6.8
[13]; KB Table, absence of extracellular Mg2+, read-out: KB
  Kb: 6.7 µM
[13]; [17]
  % affinity ratio: 18%
[13]; [18]
  α, estimated cooperativity term: 0.34
[13]; with test item 49 nM
  L-glutamate CRC HillSlope: 1.7
  L-glutamate CRC LogEC50: −7.5
[13]; with test item 195 nM
  L-glutamate CRC HillSlope: 1.4
  L-glutamate CRC LogEC50: −7.5
[13]; with test item 781 nM
  L-glutamate CRC HillSlope: 1.7
  L-glutamate CRC LogEC50: −7.4
[13]; with test item 3.1 μM
  L-glutamate CRC HillSlope: 1.9
  L-glutamate CRC LogEC50: −7.3
[13]; with test item 12.5 μM
  L-glutamate CRC HillSlope: 1.7
  L-glutamate CRC LogEC50: −7.1
[13]; with test item 50 μM
  L-glutamate CRC HillSlope: 1.9
  L-glutamate CRC LogEC50: −6.8
Rat brain
  vacuolization in rats' brains: cause vacuolization
